Where a name gives a salt, the structure may show the parent alone.
Tested on: coronary vasospasm
Assay: Treatment of coronary vasospasm after off pump beating coronary artery bypass grafting (angiography, case reports)
Format: in vivo, patient
Procedure: To a patient who had been subjected to off pump beating coronary artery bypass grafting (in which a left internal thoracic artery was anastomosed to each of a left anterior descending coronary artery and a diagonal branch), during and after the operation, isosorbide dinitrate (2 to 5 mg/hour), diltiazem (1 to 2 mg/hour), nicorandil (4 to 6 mg/hour), and catecholamines (1 to 2 μg/kg per minute of dopamine and 1 to 2 μg/kg per minute of dobutamine) were continuously intravenously administered. However, after three hours of the operation, severe coronary vasospasm occurred. The coronary vasospasm occurred in a right coronary artery which was not related to the bypass operation. Isosorbide dinitrate (total of 10 mg) was administered into the coronary artery, but it had no effect on the vasospasm. Therefore, fasudil hydrochloride was dissolved in a physiological saline and then the mixture was administered into the right coronary artery for 15 minutes at a rate of 1.5 mg/minute. As a result, the coronary vasospasm was resolved (see FIG. 1). At the occurrence of the vasospasm and after the administration of isosorbide dinitrate, the right coronary artery became thin like a thread due to the vasospasm and peripheral part thereof was not illustrated. However, after the administration of fasudil hydrochloride, the peripheral part was illustrated. […] After that, fasudil hydrochloride was dissolved in the physiological saline and the mixture was continuously administered into the vein for 72 hours (tapered from 10 mg/hour).
To a patient who had been subjected to off pump beating coronary artery bypass grafting (in which a saphenous vein graft was anastomosed from an aorta to a left anterior descending coronary artery), during and after the operation, isosorbide dinitrate (1 to 5 mg/hour), diltiazem (1 to 2 mg/hour), and catecholamines (1 to 2 μg/kg per minute of dopamine, dobutamine, and norepinephrine, respectively) were continuously intravenously administered. However, after five hours of the operation, severe coronary vasospasm occurred. The coronary vasospasm occurred in a right coronary artery and a left circumflex coronary artery which were not related to the bypass operation. Isosorbide dinitrate (total of 10 mg) was administered into the right coronary artery, but it had no effect on the vasospasm. Therefore, fasudil hydrochloride was dissolved in a physiological saline and then the mixture was administered into the right coronary artery for 15 minutes at a rate of 1.5 mg/minute As a result, the coronary vasospasm was resolved (see FIG. 1). At the occurrence of the vasospasm and after the administration of isosorbide dinitrate, the distal part thereof from the portion where the vasospasm had occurred was not illustrated. However, after the administration of fasudil hydrochloride, the peripheral part was illustrated. […] After that, fasudil hydrochloride was dissolved in the physiological saline and the mixture was continuously administered into the vein for 72 hours (tapered from 10 mg/hour).
To a patient who had been subjected to off pump beating coronary artery bypass grafting (in which a right internal thoracic artery was anastomosed to a left anterior descending coronary artery and a left internal thoracic artery was anastomosed to a posterolateral branch of a left circumflex coronary artery), during the operation, isosorbide dinitrate (1 to 3 mg/hour), diltiazem (0.5 to 1 mg/hour), nicorandil (2 to 3 mg/hour), and catecholamines (1 to 5 μg/kg per minute of dopamine, 1 to 2 μg/kg per minute of dobutamine, and 1 to 2 μg/min of norepinephrine) were continuously intravenously administered. However, severe coronary vasospasm occurred immediately thereafter. The vasospasm occurred in the right coronary artery which was not related to the bypass operation and the bypass artery grafts (the right internal thoracic artery and the left internal thoracic artery) while the anastomosis region was left open. […]

O=S(=O)(c1cccc2cnccc12)N1CCCNCC1 [fasudil hydrochloride]
resolved: effect on the coronary vasospasm (Example 1 patient, fasudil hydrochloride in physiological saline into the right coronary artery for 15 minutes at 1.5 mg/minute) | effect on the coronary vasospasm (Example 2 patient, fasudil hydrochloride in physiological saline into the right coronary artery for 15 minutes at 1.5 mg/minute) | effect on the coronary vasospasm (Example 3 patient, fasudil hydrochloride in physiological saline into each of the blood vessels for 15 minutes at 1.5 mg/minute)
did not occur again: recurrence of coronary vasospasm (Example 1 patient, continuous intravenous administration for 72 hours (tapered from 10 mg/hour)) | recurrence of coronary vasospasm (Example 2 patient, continuous intravenous administration for 72 hours (tapered from 10 mg/hour)) | recurrence of coronary vasospasm (Example 3 patient, continuous intravenous administration for 48 hours (tapered from 30 mg/hour))

Reference: patent US20080242660A1, “Therapeutic Agent for Vasospasm Accompanying Bypass Operation” (ASAHI KASEI PHARMA CORPORATION, priority 2004, published 2008)
